Patent publication US20140171431A1, “AZOLE HETEROCYCLIC COMPOUND, PREPARATION METHOD, PHARMACEUTICAL COMPOSITION AND USE” (priority 2011, published 2014)
Where two headings read alike, the source gives them in different places.

How the values were obtained:
[1] = target: T1, Lp-PLA2 in rabbit serum (Oryctolagus cuniculus, UniProt G1SE06); test: In vitro inhibitory activity towards the enzyme Lp-PLA2 in rabbit serum, [3H]PAF substrate; assay type: biochemical; details: for inhibition at 0.1 µM: 100 nM
T1 construct: from tissue; host or cells: rabbit serum
T1 sequence (G1SE06 22-423): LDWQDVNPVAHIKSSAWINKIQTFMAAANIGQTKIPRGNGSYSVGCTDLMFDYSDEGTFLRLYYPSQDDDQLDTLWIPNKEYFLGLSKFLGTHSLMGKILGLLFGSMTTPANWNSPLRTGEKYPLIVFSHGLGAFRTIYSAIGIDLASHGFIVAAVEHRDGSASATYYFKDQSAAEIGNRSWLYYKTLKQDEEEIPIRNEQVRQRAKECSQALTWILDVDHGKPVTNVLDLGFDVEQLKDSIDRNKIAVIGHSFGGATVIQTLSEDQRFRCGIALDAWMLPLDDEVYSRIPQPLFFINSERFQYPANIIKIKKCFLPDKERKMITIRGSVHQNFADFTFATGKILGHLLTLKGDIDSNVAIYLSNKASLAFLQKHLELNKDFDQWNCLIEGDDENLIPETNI
Method: (§1) The activities of compounds were measured using [^3H] labeled platelet activating factor ([^3H]PAF, Perkinelmer, Lot NET910) as the substrate. The reaction was carried out in a system containing 50 mmol/L HEPES and 150 mmol/L NaCl (pH 7.4) in a total volume of 200 μl. First, 10 μL rabbit serum and 10 μl DMSO solution of the test compound were added to the system and preincubated for 10 min at 37° C. Then 20 nM [^3H]PAF was added as listed in table 1 to start the reaction and incubated for a further 10 min at 37° C. After that, 600 μl of CHCl3/MeOH (2:1) was added and the resulting mixture was vortex mixed and the reaction was stopped. After settled for a while, the mixture was centrifugated at 12000×g for 15 min. The supernatant was transferred to a new tube and 200 μl of CHCl3 was added. The mixture was mixed by vortexing and then settled or centrifugated for 2 min. A 100 μl portion of the supernatant was then collected for radioactivity intensity measurement.
The inhibition rate was determined by the following equation:
Inhibitory rate (%)=1−(DPMcompound tube−DPMblank tube)/(DPMcontrol tube−DPMblank tube)*100%
(Note: DPM is radioactivity intensity unit.)

[2] = target: T2, Lp-PLA2 in human serum (Homo sapiens, UniProt Q13093); test: In vitro inhibitory activity towards the enzyme Lp-PLA2 in human serum, [3H]PAF substrate; assay type: biochemical; details: for inhibition at 0.01 µM: 10 nM; for inhibition at 0.1 µM: 100 nM
T2 construct: from tissue
T2 sequence (Q13093 22-441): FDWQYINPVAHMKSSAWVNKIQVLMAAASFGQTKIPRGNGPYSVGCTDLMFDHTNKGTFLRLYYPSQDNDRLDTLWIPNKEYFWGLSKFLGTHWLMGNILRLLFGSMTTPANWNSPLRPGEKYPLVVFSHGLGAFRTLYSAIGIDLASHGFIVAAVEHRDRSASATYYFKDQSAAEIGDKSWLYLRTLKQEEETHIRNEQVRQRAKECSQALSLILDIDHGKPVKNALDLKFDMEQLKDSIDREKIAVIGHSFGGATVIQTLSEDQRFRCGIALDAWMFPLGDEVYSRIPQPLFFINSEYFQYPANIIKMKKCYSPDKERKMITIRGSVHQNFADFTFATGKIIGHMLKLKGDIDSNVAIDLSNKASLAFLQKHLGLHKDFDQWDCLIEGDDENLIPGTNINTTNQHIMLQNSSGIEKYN
Method: as §1, with “mmol/l” for “mmol/L”, “human plasma” for “rabbit serum”, “was” for “was vortex”, “with vortex.” for “and the reaction was stopped.”, “added and mixed by vortexing.” for “added.”, “was” for “was mixed by vortexing and then”

[3] = rabbit serum, read-out: inhibition, %
[4] = human serum, read-out: inhibition, %
[5] = read-out: inhibitory rate towards the human serum derived Lp-PLA2 enzyme

SMILES	inhibition at 0.1 µM [1, 3] [%]	inhibition at 0.01 µM [2, 4] [%]	inhibition at 1 µM ([1]; rabbit serum) [%]	inhibition at 10 µM ([1]; rabbit serum) [%]	further results
C[N+](C)(Cc1ccc(F)cc1)Cc1nnc(Cn2c(SCc3ccc(F)cc3)nc(=O)c3c2CCC3)n1Cc1ccc(-c2ccc(C(F)(F)F)cc2)cc1 [Example 76, N-(4-fluorobenzyl)-1-(5-((2-(4-fluorobenzylthio)-4-oxo-4,5,6,7-tetrahydro-1H-cyclopenta[d]pyrimidin-1-yl)methyl)-4-((4′-(trifluoromethyl)biphenyl-4-yl)methyl)-4 H-1,2,4-triazol-3-yl)-N,N-dimethylmethanaminium bromide]	97	100			inhibition at 0.1 µM ([1]; read-out: inhibitory rate towards the rabbit serum derived Lp-PLA2 enzyme): > 90%; inhibition at 0.01 µM [2, 5]: > 80%; inhibition at 0.1 µM ([2]; human serum): 100%
CCN(CC)Cc1nnc(Cn2c(SCc3ccc(F)cc3)nc(=O)c3c2CCC3)n1Cc1ccc(-c2ccc(C(F)(F)F)cc2)cc1 [Example 79, 1-((5-((diethylamino)methyl)-4-((4′-(trifluoromethyl)biphenyl-4-yl)methyl)-4H-1,2,4-triazol-3-yl)methyl)-2-(4-fluorobenzylthio)-6,7-dihydro-1H-cyclopenta[d]pyrimidin-4(5H)-one]	85.3	68			inhibition at 0.1 µM ([2]; human serum): 93%
CCn1c(Cn2cc(Cc3cnn(C)c3)c(=O)nc2SCc2ccc(F)cc2)nnc1-c1ccc(-c2ccc(C(F)(F)F)cc2)cc1 [Example 58, 1-((4-ethyl-5-(4′-(trifluoromethyl)biphenyl-4-yl)-4H-1,2,4-triazol-3-yl)methyl)-2-(4-fluorobenzylthio)-5-((1-methyl-1H-pyrazol-4-yl)methyl)pyrimidin-4 (1H)-one]			32	94.8	
CCCC1NC(Cn2c(SCc3ccc(F)cc3)nc(=O)c3c2CCC3)=NO1 (stereo not drawn) [Example 6, 2-(4-fluorobenzylthio)-1-((5-n-propyl-4,5-dihydro-1,2,4-oxadiazol-3-yl)methyl)-6,7-dihydro-1H-cyclo-penta[d]pyrimidin-4(5H)-one]			16.2	74	
O=c1nc(SCc2cccc(F)c2F)n(CC2=NOC(c3ccc(-c4ccc(C(F)(F)F)cc4)cc3)N2CCN2CCCCC2)c2c1CCC2 (stereo not drawn) [Example 23, 2-(2,3-difluorobenzylthio)-1-((4-(2-(piperidin-1-yl)ethyl)-5-(4′-(trifluoromethyl)biphenyl-4-yl)-4,5-dihydro-1,2,4-oxadiazol-3-yl)methyl)-6,7-dihydro-1H-cyclopenta[d]pyrimidin-4(5H)-one]			33	82.4	
CCCCCCCCCCC1NC(Cn2c(SCc3ccc(F)cc3)nc(=O)c3c2CCC3)=NO1 (stereo not drawn) [Example 2, 1-((5-n-decyl-4,5-dihydro-1,2,4-oxadiazol-3-yl)methyl)-2-(4-fluorobenzylthio)-6,7-dihydro-1H-cyclopenta[d]pyrimidin-4(5H)-one]			26.6	82.7	
O=c1nc(SCc2ccc(F)cc2)n(Cc2nc3ccccc3n2Cc2ccc(-c3ccc(C(F)(F)F)cc3)cc2)c2c1CCC2 [Example 53, 2-(4-fluorobenzylthio)-1-((1-((4′-(trifluoromethyl)biphenyl-4-yl)methyl)-1H-benzo[d]imidazol-2-yl)methyl)-6,7-dihydro-1H-cyclopenta[d]pyrimidin-4(5H)-one]	43.2		90.1		
Cc1ccc(-c2ccc(Cn3ccnc3Cn3cc(Cc4cnn(C)c4)c(=O)nc3SCc3ccc(F)cc3)cc2)cc1 [Example 34, 2-(4-fluorobenzylthio)-5-((1-methyl-1H-pyrazol-4-yl)methyl)-1-((1-((4′-methylbiphenyl-4-yl)methyl)-1H-imidazol-2-yl)methyl)pyrimidin-4(1H)-one]			14.6		

Now from value to molecule, other results behind:

inhibition at 0.1 µM [1, 3] [%]	inhibition at 0.01 µM [2, 4] [%]	inhibition at 1 µM ([1]; rabbit serum) [%]	inhibition at 10 µM ([1]; rabbit serum) [%]	SMILES	further results
67	67			CC(=O)NCc1nnc(Cn2c(SCc3ccc(F)cc3)nc(=O)c3c2CCC3)n1Cc1ccc(-c2ccc(C(F)(F)F)cc2)cc1 [Example 110, N-((5-((2-(4-fluorobenzylthio)-4-oxo-4,5,6,7-tetrahydro-1H-cyclopenta[d]pyrimidin-1-yl)methyl)-4-((4′-(trifluoromethyl)biphenyl-4-yl)methyl)-4H-1,2,4-triazol-3-yl)methyl)acetamide]	inhibition at 0.1 µM ([2]; human serum): 83%
97	77			O=C1NCCN1CCNCc1nnc(Cn2c(SCc3ccc(F)cc3)nc(=O)c3c2CCC3)n1Cc1ccc(-c2ccc(C(F)(F)F)cc2)cc1 [Example 102, 2-(4-fluorobenzylthio)-1-((5-((2-(2-oxoimidazolidin-1-yl)ethylamino)methyl)-4-((4′-(trifluoromethyl)biphenyl-4-yl)methyl)-4H-1,2,4-triazol-3-yl)methyl)-6,7-dihydro-1H-cyclopenta[d]pyrimidin-4(5H)-one]	
		31	86.6	O=c1nc(SCc2ccc(F)cc2)n(CC2=NOC(c3ccc(-c4ccc(C(F)(F)F)cc4)cc3)N2CCN2CCCCC2)c2c1CCC2 (stereo not drawn) [Example 20, 2-(4-fluorobenzylthio)-1-((4-(2-(piperidin-1-yl)ethyl)-5-(4′-(trifluoromethyl)biphenyl-4-yl)-4,5-dihydro-1,2,4-oxadiazol-3-yl)methyl)-6,7-dihydro-1H-cyclopenta[d]pyrimidin-4(5H)-one]	
		42.3	87.5	CCCCCCCCCCCCn1ccnc1Cn1c(SCc2ccc(F)cc2)nc(=O)c2c1CCC2 [Example 30, 1-((1-n-dodecyl-1H-imidazol-2-yl)methyl)-2-(4-fluorobenzylthio)-6,7-dihydro-1H-cyclopenta[d]pyrimidin-4(5H)-one]	
2.1		50		O=c1nc(SCc2ccc(F)cc2)n(Cc2nccn2Cc2ccc(-c3ccc(Cl)cc3)cc2)c2c1CCC2 [Example 32, 1-((1-((4′-chlorobiphenyl-4-yl)methyl)-1H-imidazol-2-yl)methyl)-2-(4-fluorobenzylthio)-6,7-dihydro-1H-cyclopenta[d]pyrimidin-4(5H)-one]	
	97			O=c1nc(SCc2ccc(F)cc2)n(Cc2ncc(C[N+]3(Cc4ccc(F)cc4)CCCC3)n2Cc2ccc(-c3ccc(C(F)(F)F)cc3)cc2)c2c1CCC2 [Example 49, 1-(4-fluorobenzyl)-1-(2-((2-(4-fluorobenzylthio)-4-oxo-4,5,6,7-tetrahydro-1H-cyclopenta[d]pyrimidin-1-yl)methyl)-1-((4′-(trifluoromethyl)biphenyl-4-yl)methyl)-1H-imidazol-5-yl)methyl)pyrrolidinium bromide]	inhibition at 0.01 µM [2, 5]: > 80%; inhibition at 0.1 µM ([2]; human serum): 98%
			12.5	CCCCCCCC1NC(Cn2c(SCc3ccc(F)cc3)cc(=O)c3ccccc32)=NO1 (stereo not drawn) [Example 3, 2-(4-fluorobenzylthio)-1-((5-n-heptyl-4,5-dihydro-1,2,4-oxadiazol-3-yl)methyl)quinolin-4(1H)-one]	
12.6		64.9		Cn1cc(Cc2cn(Cc3nccn3Cc3ccc(-c4ccc(C(F)(F)F)cc4)cc3)c(SCc3ccc(F)cc3)nc2=O)cn1 [Example 29, 2-(4-fluorobenzylthio)-5-((1-methyl-1H-pyrazol-4-yl)methyl)-1-((1-((4′-(trifluoromethyl)biphenyl-4-yl)methyl)-1H-imidazol-2-yl)methyl)pyrimidin-4(1H)-one]	
